# Laboratory results taken from ChEMBL document CHEMBL4673355, “Thiacalixarene based quaternary ammonium salts as promising antibacterial agents” (Bioorg Med Chem, 2021).
# Key:
# Assay type in all cases: functional
# [1] = tested on: Escherichia coli; experiment: Antibacterial activity against Escherichia coli ATCC 25922 assessed as reduction in bacterial growth incubated for 24 hrs by CLSI broth microdilution method; settings: Escherichia coli, ATCC 25922, 24 h, read-out: MIC
# [2] = tested on: Staphylococcus aureus; experiment: Antibacterial activity against Staphylococcus aureus ATCC 6538 incubated for 24 hrs by CLSI broth microdilution method
# [3] = tested on: Pseudomonas aeruginosa; experiment: Antibacterial activity against Pseudomonas aeruginosa ATCC 9027 assessed as reduction in bacterial growth incubated for 24 hrs by CLSI broth microdilution method
# [4] = tested on: Klebsiella pneumoniae; experiment: Antibacterial activity against Klebsiella pneumoniae ATCC 10031 assessed as reduction in bacterial growth incubated for 24 hrs by CLSI broth microdilution method
# [5] = tested on: Staphylococcus aureus; experiment: Antibacterial activity against methicillin- resistant Staphylococcus aureus 25 clinical isolate assessed as reduction in bacterial growth incubated for 24 hrs by CLSI broth microdilution method
# [6] = tested on: Staphylococcus aureus; experiment: Antibacterial activity against methicillin- resistant Staphylococcus aureus 2020 clinical isolate assessed as reduction in bacterial growth incubated for 24 hrs by CLSI broth microdilution method
# [7] = tested on: Proteus sp.; experiment: Antibacterial activity against […] resistant Proteus sp. clinical isolate 17 assessed as reduction in bacterial growth incubated for 24 hrs by CLSI broth microdilution method; settings: Proteus sp. (in: enterobacteria)
# [8] = tested on: Staphylococcus aureus; experiment: Antibacterial activity against methicillin- resistant Staphylococcus aureus 967 clinical isolate assessed as reduction in bacterial growth incubated for 24 hrs by CLSI broth microdilution method
# [9] = tested on: Pseudomonas; experiment: Antibacterial activity against methicillin- resistant Pseudomonas spp. clinical isolate 6 assessed as reduction in bacterial growth incubated for 24 hrs by CLSI broth microdilution method
# [10] = tested on: Klebsiella pneumoniae; experiment: Bactericidal activity against Klebsiella pneumoniae ATCC 1813 assessed as reduction in bacterial growth incubated for 24 hrs followed by replating on MH broth and further incubated for 24 hrs by CLSI broth microdilution method
# [11] = tested on: Pseudomonas aeruginosa; experiment: Bactericidal activity against Pseudomonas aeruginosa ATCC 27853 assessed as reduction in bacterial growth incubated for 24 hrs followed by replating on MH broth and further incubated for 24 hrs by CLSI broth microdilution method
# [12] = tested on: Staphylococcus epidermidis; experiment: Bactericidal activity against Staphylococcus epidermidis assessed as reduction in bacterial growth incubated for 24 hrs followed by replating on MH broth and further incubated for 24 hrs by CLSI broth microdilution method; settings: Staphylococcus epidermidis, read-out: MBC
# [13] = Antibacterial activity against […] resistant Moraxella sp.765 clinical isolate assessed as reduction in bacterial growth incubated for 24 hrs by CLSI broth microdilution method; settings: Moraxella catarrhalis
# [14] = tested on: Acinetobacter; experiment: Antibacterial activity against […] resistant Acinetobacter spp. clinical isolate 5 assessed as reduction in bacterial growth incubated for 24 hrs by CLSI broth microdilution method
# [15] = tested on: Staphylococcus haemolyticus; experiment: Antibacterial activity against methicillin- resistant Staphylococcus haemolyticus 837 assessed as reduction in bacterial growth incubated for 24 hrs by CLSI broth microdilution method
# [16] = tested on: Klebsiella sp.; experiment: Antibacterial activity against […] resistant Klebsiella sp. clinical isolate 11 assessed as reduction in bacterial growth incubated for 24 hrs by CLSI broth microdilution method
# [17] = tested on: Staphylococcus aureus; experiment: Bactericidal activity against Staphylococcus aureus ATCC 29213 assessed as reduction in bacterial growth incubated for 24 hrs followed by replating on MH broth and further incubated for 24 hrs by CLSI broth microdilution method; settings: Staphylococcus aureus, ATCC 29213; time 48 hrs; read-out: MBC
# [18] = tested on: Acinetobacter; experiment: Antibacterial activity against […] resistant Acinetobacter spp. clinical isolate 1 assessed as reduction in bacterial growth incubated for 24 hrs by CLSI broth microdilution method
# [19] = tested on: Bacillus subtilis; experiment: Antibacterial activity against Bacillus subtilis 168 assessed as reduction in bacterial growth incubated for 24 hrs by CLSI broth microdilution method
# [20] = tested on: Acinetobacter; experiment: Antibacterial activity against […] resistant Acinetobacter spp. clinical isolate 3 assessed as reduction in bacterial growth incubated for 24 hrs by CLSI broth microdilution method
# [21] = tested on: Escherichia coli; experiment: Bactericidal activity against Escherichia coli ATCC 25922 assessed as reduction in bacterial growth incubated for 24 hrs followed by replating on MH broth and further incubated for 24 hrs by CLSI broth microdilution method
# [22] = tested on: Klebsiella sp.; experiment: Antibacterial activity against […] resistant Klebsiella sp. clinical isolate 12 assessed as reduction in bacterial growth incubated for 24 hrs by CLSI broth microdilution method
# [23] = tested on: Bacillus subtilis; experiment: Bactericidal activity against Bacillus subtilis 168 assessed as reduction in bacterial growth incubated for 24 hrs followed by replating on MH broth and further incubated for 24 hrs by CLSI broth microdilution method; settings: Bacillus subtilis, 168, 24 h
# [24] = tested on: Staphylococcus aureus; experiment: Antibacterial activity against methicillin- resistant Staphylococcus aureus 983 clinical isolate assessed as reduction in bacterial growth incubated for 24 hrs by CLSI broth microdilution method
# [25] = Antibacterial activity against […] resistant Moraxella sp.764 clinical isolate assessed as reduction in bacterial growth incubated for 24 hrs by CLSI broth microdilution method; settings: Moraxella catarrhalis
# [26] = tested on: Staphylococcus intermedius; experiment: Antibacterial activity against methicillin- resistant Staphylococcus intermedius 1143 clinical isolate assessed as reduction in bacterial growth incubated for 24 hrs by CLSI broth microdilution method
# [27] = Antibacterial activity against […] resistant Moraxella sp.829 clinical isolate assessed as reduction in bacterial growth incubated for 24 hrs by CLSI broth microdilution method; settings: Moraxella catarrhalis
# [28] = tested on: Staphylococcus aureus; experiment: Bactericidal activity against Staphylococcus aureus ATCC 29213
# [29] = tested on: Staphylococcus aureus; experiment: Antibacterial activity against Staphylococcus aureus ATCC 29213 by CLSI broth microdilution method
# [30] = tested on: Escherichia coli; experiment: Bactericidal activity against Escherichia coli ATCC 25922
smiles,measurement,setting,value
CCCCCCCCOc1c2cc(C[N+](C)(C)CCN)cc1Cc1cc(C[N+](C)(C)CCN)cc(c1OCCCCCCCC)Cc1cc(C[N+](C)(C)CCN)cc(c1OCCCCCCCC)Cc1cc(C[N+](C)(C)CCN)cc(c1OCCCCCCCC)C2.[Cl-].[Cl-].[Cl-].[Cl-],MIC,[1],> 1000 µg/mL
same,MIC,[2],> 1000 µg/mL
same,MIC,[3],> 1000 µg/mL
same,MIC,[4],> 1000 µg/mL
CCCCCCCC[N+](C)(C)CCCNC(=O)COc1c2cc(C(C)(C)C)cc1Sc1cc(C(C)(C)C)cc(c1OCC(=O)NCCC[N+](C)(C)CCCCCCCC)Sc1cc(C(C)(C)C)cc(c1OCC(=O)NCCC[N+](C)(C)CCCCCCCC)Sc1cc(C(C)(C)C)cc(c1OCC(=O)NCCC[N+](C)(C)CCCCCCCC)S2.[Cl-].[Cl-].[Cl-].[Cl-],MIC,[5],4 µg/mL
same,MIC,[6],16 µg/mL
same,MIC,[7],64 µg/mL
same,MIC,[8],16 µg/mL
same,MIC,[9],16 µg/mL
same,MBC,[10],32 µg/mL
same,MBC,[11],32 µg/mL
same,MBC,[12],2 µg/mL
same,MIC,[13],16 µg/mL
same,MIC,[14],16 µg/mL
same,MIC,[15],16 µg/mL
same,MIC,[16],16 µg/mL
same,MBC,[17],1 µg/mL
same,MIC,[18],8 µg/mL
same,MIC,[19]; 24 h,4 µg/mL
same,MIC,"[19]; Bacillus subtilis, 168, 24 h, read-out: MIC",2 µg/mL
same,MIC,[20],16 µg/mL
same,MBC,[21],16 µg/mL
same,MIC,[22],16 µg/mL
same,MBC,[23],16 µg/mL
same,MIC,[24],16 µg/mL
same,MIC,[25],16 µg/mL
same,MIC,[26],2 µg/mL
same,MIC,[27],16 µg/mL
CCCOc1c2cc(C[n+]3ccn(C)c3)cc1Cc1cc(C[n+]3ccn(C)c3)cc(c1OCCC)Cc1cc(C[n+]3ccn(C)c3)cc(c1OCCC)Cc1cc(C[n+]3ccn(C)c3)cc(c1OCCC)C2.[Cl-].[Cl-].[Cl-].[Cl-],MIC,[1],≤ 10 µg/mL
same,MIC,[2],≤ 10 µg/mL
same,MIC,[3],50 µg/mL
same,MIC,[4],≤ 10 µg/mL
CCCOc1c2cc(C[N+](C)(C)C)cc1Cc1cc(C[N+](C)(C)C)cc(c1OCCC)Cc1cc(C[N+](C)(C)C)cc(c1OCCC)Cc1cc(C[N+](C)(C)C)cc(c1OCCC)C2.[Cl-].[Cl-].[Cl-].[Cl-],MIC,[1],16 µg/mL
same,MBC,[28],16 µg/mL
same,MIC,[29],16 µg/mL
same,MBC,[30],16 µg/mL
CCCOc1c2cc(C[N+](C)(C)CCN)cc1Cc1cc(C[N+](C)(C)CCN)cc(c1OCCC)Cc1cc(C[N+](C)(C)CCN)cc(c1OCCC)Cc1cc(C[N+](C)(C)CCN)cc(c1OCCC)C2.[Cl-].[Cl-].[Cl-].[Cl-],MIC,[1],500 µg/mL
same,MIC,[2],≤ 10 µg/mL
same,MIC,[3],50 µg/mL
same,MIC,[4],500 µg/mL
CCCOc1c2cc(C[N+](C)(C)CCO)cc1Cc1cc(C[N+](C)(C)CCO)cc(c1OCCC)Cc1cc(C[N+](C)(C)CCO)cc(c1OCCC)Cc1cc(C[N+](C)(C)CCO)cc(c1OCCC)C2.[Cl-].[Cl-].[Cl-].[Cl-],MIC,[1],32 µg/mL
same,MBC,[28],16 µg/mL
same,MIC,[2],≤ 10 µg/mL
same,MIC,[29],16 µg/mL
same,MIC,[3],1000 µg/mL
same,MBC,[30],256 µg/mL
same,MIC,[4],100 µg/mL
